# Source: PubChem BioAssay (NCI)
#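 GI50 is the concentration that inhibits growth by half. TGI: total growth inhibition.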
# Key:
# Experiment in all cases: inhibition of tumour cell growth, NCI panel, 384-well format
# M14 melanoma = test system: M14 melanoma
# SK-MEL-5 melanoma = test system: SK-MEL-5 melanoma
# SF-539 CNS = test system: SF-539 CNS
# HCT-15 colon = test system: HCT-15 colon
# SF-295 CNS = test system: SF-295 CNS
# RPMI-8226 leukemia = test system: RPMI-8226 leukemia
# HT29 colon = test system: HT29 colon
# HCT-116 colon = test system: HCT-116 colon
# HOP-62 NSCLC = test system: HOP-62 NSCLC
# KM12 colon = test system: KM12 colon
# SK-MEL-2 melanoma = test system: SK-MEL-2 melanoma
# RXF 393 renal = test system: RXF 393 renal
# K-562 leukemia = test system: K-562 leukemia
smiles,measurement,setting,value
CC(F)(F)c1cc(F)ccc1-c1sc2cc(O)ccc2c1Oc1ccc(/C=C/C(=O)O)cc1,GI50,M14 melanoma,11.6 µM
same,TGI,M14 melanoma,25.8 µM
same,GI50,SK-MEL-5 melanoma,12.2 µM
same,TGI,SK-MEL-5 melanoma,24.7 µM
same,GI50,SF-539 CNS,15.8 µM
same,TGI,SF-539 CNS,29.8 µM
same,GI50,HCT-15 colon,11.3 µM
same,TGI,HCT-15 colon,24 µM
same,GI50,SF-295 CNS,7.72 µM
same,TGI,SF-295 CNS,21.6 µM
same,GI50,RPMI-8226 leukemia,11 µM
same,TGI,RPMI-8226 leukemia,23.2 µM
same,GI50,HT29 colon,16.2 µM
same,TGI,HT29 colon,31.4 µM
same,GI50,HCT-116 colon,15.6 µM
same,TGI,HCT-116 colon,30.5 µM
same,GI50,HOP-62 NSCLC,9.88 µM
same,TGI,HOP-62 NSCLC,21.8 µM
same,GI50,KM12 colon,12.7 µM
same,TGI,KM12 colon,25.5 µM
same,GI50,SK-MEL-2 melanoma,13.6 µM
same,TGI,SK-MEL-2 melanoma,28.9 µM
same,GI50,RXF 393 renal,5 µM
same,TGI,RXF 393 renal,18.5 µM
same,GI50,K-562 leukemia,10.9 µM
same,TGI,K-562 leukemia,24.4 µM
